Data published in US12285012B2, “Compositions comprising pyridine carboxylate herbicides with acetolactate synthase (ALS) inhibitor herbicides” (Corteva Agriscience LLC, priority 2018, dated 2025).

Experiments:
[1] = system: Canadian thistle (CIRAR, Cirsium arvense); assay: Greenhouse postemergence herbicidal effect; format: in vivo; conditions: Pyribenzoxim 10 g/ha
Outline: (§1)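 Plants at the second or third true leaf stage, grown at about 23/22 °C day/night with a 14 h photoperiod, were sprayed postemergence. Emulsifiable concentrates held cloquintocet-mexyl safener at 120 g ai/L; rates are g ae/ha (pyridine carboxylate) or g ai/ha (ALS inhibitor). Injury was scored visually against solvent-blank controls at 20-22 d (0-100%).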

[2] = system: spring rape (BRSNN, Brassica napus); assay: Greenhouse postemergence herbicidal effect; format: in vivo; conditions: Pyribenzoxim 10 g/ha
Outline: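 Injury was rated visually after 20-22 d on a 0 (none) to 100% (complete kill) scale relative to solvent-sprayed controls, with sub-irrigation to avoid wash-off. Rates were given in g ae/ha or g ai/ha depending on component.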

spring wheat (TRZAS) = format: in vivo, Triticum aestivum; conditions: Pyribenzoxim 10 g/ha
Outline: as §1

[3] = system: grain sorghum (SORVU, Sorghum vulgare); assay: Greenhouse postemergence herbicidal effect; format: in vivo; conditions: Pyribenzoxim 10 g/ha
Text: (§2) Seeds of the desired test plant species were planted in a 90:10% v/v (volume/volume) mixture of PRO-MIX® BX (Premier Tech Horticulture, Quakertown, PA, USA) and PROFILE® GREENS GRADE™ (Profile Products LLC, Buffalo Grove, IL, USA) planting mixture, which typically has a pH of 5.2 to 6.2 and an organic matter content of at least 50 percent, in plastic pots with a surface area of 103.2 square centimeters (cm^2). In some aspects, to ensure good germination and healthy plants, a fungicide treatment and/or other chemical or physical treatment was applied. The plants were grown for 7-36 days (d) in a greenhouse with an approximate 14-hour (h) photo-period which was maintained at about 23° C. during the day and 22° C. during the night. Nutrients and water were added on a regular basis and supplemental lighting was provided with overhead metal halide 1000-Watt lamps as necessary. The plants were employed for testing when they reached the second or third true leaf stage.
(§3) Emulsifiable concentrates of each of each pyridine carboxylate herbicide (Compound A or Compound B) were prepared at 100 grams acid equivalent per liter (g ae/L). The emulsifiable concentrates also included a safener, cloquintocet-mexyl, at 120 grams active ingredient per liter (g ai/L), unless otherwise noted below. An aliquot of each emulsifiable concentrate was placed in a 25 mL glass vial and diluted with an aqueous mixture of 1.25% (v/v) ACTIROB® B esterified rapeseed oil (Bayer Crop Science, Research Triangle Park, NC, USA) or MSO® Concentrate with LECI-TECH® methylated soybean oil (Loveland Products, Loveland, CO, USA) to obtain concentrated stock solutions at the highest application rate for each herbicide, based upon a 12 milliliter (mL) application volume at a rate of 187 liters per hectare (L/ha). The concentrated stock solutions were further diluted with an aqueous mixture of 1.25% v/v ACTIROB® B or MSO® Concentrate with LECI-TECH® to obtain stock solutions at reduced application rates for each herbicide. Spray solutions of the herbicide combinations (Compound A or Compound B plus ALS herbicide) were prepared by adding weighed amounts or aliquots of the ALS herbicides to the stock solutions of Compound A or Compound B to form 12-mL spray solutions in two- or three-way combinations.
(§4) The spray solutions were applied to the plant material with an overhead Mandel track sprayer equipped with 8002E nozzles calibrated to deliver 187 L/ha over an application area of 0.503 square meters (m^2) at a spray height of 18 inches (43 centimeters (cm)) above the average plant canopy. Control plants were sprayed in the same manner with the solvent blank. All pyridine carboxylate herbicide (component a) application rates are given as “g ae/ha” and all ALS inhibitor (component b) application rates are given as “g ai/ha.”
(§5) The treated plants and control plants were placed in a greenhouse as described above and watered by sub-irrigation to prevent wash-off of the test compounds. After 20-22 d, the condition of the test plants as compared with that of the control plants was determined visually and scored on a scale of 0 to 100 percent where 0 corresponds to no injury and 100 corresponds to complete kill.

[4] = system: common sunflower (HELAN, Helianthus annuus); assay: Greenhouse postemergence herbicidal effect; format: in vivo; conditions: Pyribenzoxim 10 g/ha
Text: as §2, §3, §4, §5

[5] = system: ivyleaf morningglory (IPOHE, Ipomoea hederacea); assay: Greenhouse postemergence herbicidal effect; format: in vivo; conditions: Pyribenzoxim 10 g/ha
Text: as §2, §3, §4, §5

[6] = system: nutsedge (CYPES, Cyperus esculentus); assay: Greenhouse postemergence herbicidal effect; format: in vivo
Text: as §2, §3, §4, §5

[7] = system: poinsettia (EPHHL, Euphorbia heterophylla); assay: Greenhouse postemergence herbicidal effect; format: in vivo; conditions: Pyribenzoxim 10 g/ha
Text: as §2, §3, §4, §5

[8] = system: annual ryegrass (LOLMG=Lolium multiflorum subsp. gaudini); assay: Greenhouse postemergence herbicidal effect; format: in vivo; conditions: 20 g/ha
Text: as §2, §3, §4, §5

[9] = system: wild oat (AVEFA, Avena fatua); assay: Greenhouse postemergence herbicidal effect; format: in vivo; conditions: 20 g/ha
Text: as §2, §3, §4, §5

[10] = system: giant foxtail (SETFA, Setaria faberi); assay: Greenhouse postemergence herbicidal effect; format: in vivo; conditions: 20 g/ha
Text: as §2, §3, §4, §5

[11] = system: large crabgrass (DIGSA, Digitaria sanguinalis); assay: Greenhouse postemergence herbicidal effect; format: in vivo; conditions: 20 g/ha
Text: as §2, §3, §4, §5

[12] = system: broadleaf signalgrass (BRAPP, Brachiaria platyphylla); assay: Greenhouse postemergence herbicidal effect; format: in vivo; conditions: Penoxsulam 20 g/ha
Text: as §2, §3, §4, §5

[13] = system: small-flower flatsedge (CYPDI, Cyperus difformis); assay: Greenhouse postemergence herbicidal effect; format: in vivo; conditions: Penoxsulam 20 g/ha
Text: as §2, §3, §4, §5

[14] = system: barnyard grass (ECHCG, Echinochloa crus-galli); assay: Greenhouse postemergence herbicidal effect; format: in vivo; conditions: Penoxsulam 20 g/ha
Text: as §2, §3, §4, §5

Question: What does the source list for `COc1cc(OC)nc(Oc2cccc(Oc3nc(OC)cc(OC)n3)c2C(=O)ON=C(c2ccccc2)c2ccccc2)n1` [Pyribenzoxim, pyribenzoxim]?
Answer: % visual injury [1]: 90%; % visual injury [2]: 90%; % visual injury (spring wheat (TRZAS)): 13%; % visual injury [3]: 73%; % visual injury [4]: 98%; % visual injury [5]: 78%; % visual injury ([6]; Pyribenzoxim 10 g/ha): 0%; % visual injury [7]: 100%

Question: Which results are given for `COc1cc(OC)nc(NC(=O)NS(=O)(=O)c2ncccc2C(=O)N(C)C)n1` [Nicosulfuron, nicosulfuron]?
Answer: % visual injury, Obs [8]: 96%; % visual injury, Obs [9]: 96%; % visual injury, Obs ([6]; 20 g/ha): 40%; % visual injury, Obs [10]: 100%; % visual injury, Obs [11]: 65%

Question: For `COc1cnc(OC)n2nc(NS(=O)(=O)c3c(OCC(F)F)cccc3C(F)(F)F)nc12` [Penoxsulam, penoxsulam], which “% visual injury Obs” value [12] is on record?
Answer: 32%

Question: And the “% visual injury Obs” value [13]?
Answer: 17%

Question: What about the “% visual injury Obs” value [14] of the same compound?
Answer: 60%
